Results from ChEMBL document CHEMBL6092179, “Discovery of CLKs inhibitors for the treatment of non-small cell lung cancer” (Eur J Med Chem, 2024).
The source made the active and inactive calls. The calls are words filed in the database; no cut-off is given here.

What was measured:
[1] = molecular target: Dual specificity protein kinase CLK1 (Homo sapiens, UniProt P49759); test: Inhibition of CLK in human NCI-H1299 cells assessed as downregulation of SRSF5 phosphorylation at 0.1 to 1 uM incubated for 1 hr by Western blotting analysis; format: cell-based; settings: dose 0.1-1 µM
[2] = molecular target: Dual specificity protein kinase CLK4 (Homo sapiens, UniProt Q9HAZ1); test: Inhibition of CLK4 (unknown origin) at 100 nM by ADP-Glo assay relative to control
[3] = molecular target: Dual specificity tyrosine-phosphorylation-regulated kinase 1B (Homo sapiens) (UniProt Q9Y463); test: Inhibition of DYRK1B (unknown origin) at 100 nM by ADP-Glo assay relative to control
[4] = tested on: NCI-H1299; test: Induction of apoptosis in human NCI-H1299 cells assessed as viable cells at 1 uM incubated for 24 hrs by annexin V-FITC/PI staining based flow cytometric analysis (reference value: 95 %); format: functional; settings: read-out: Activity
[5] = tested on: NCI-H1299; test: Induction of apoptosis in human NCI-H1299 cells assessed as early apoptotic cells at 0.1 uM incubated for 24 hrs by annexin V-FITC/PI staining based flow cytometric analysis (reference value: 0.49 %); format: functional
[6] = tested on: NCI-H1299; test: Induction of apoptosis in human NCI-H1299 cells assessed as early apoptotic cells at 1 uM incubated for 24 hrs by annexin V-FITC/PI staining based flow cytometric analysis (reference value: 0.49 %); format: functional
[7] = tested on: NCI-H1299; test: Induction of apoptosis in human NCI-H1299 cells assessed as necrotic cells at 0.25 uM incubated for 24 hrs by annexin V-FITC/PI staining based flow cytometric analysis (reference value: 2.28 %); format: functional
[8] = tested on: NCI-H1299; test: Induction of apoptosis in human NCI-H1299 cells assessed as necrotic cells at 1 uM incubated for 24 hrs by annexin V-FITC/PI staining based flow cytometric analysis (reference value: 2.28 %); format: functional
[9] = tested on: NCI-H1299; test: Induction of apoptosis in human NCI-H1299 cells assessed as necrotic cells at 2.5 uM incubated for 24 hrs by annexin V-FITC/PI staining based flow cytometric analysis (reference value: 2.28 %); format: functional
[10] = tested on: NCI-H1299; test: Induction of apoptosis in human NCI-H1299 cells assessed as downregulation of MCL-1 expression at 0.1 to 1 uM incubated for 48 hrs by Western blotting analysis; format: functional, cell-based; settings: dose 0.1-1 µM
[11] = tested on: NCI-H1299; test: Inhibition of Wnt pathway in human NCI-H1299 cells assessed as downregulation of beta-catenin phosphorylation at 0.1 to 1 uM incubated for 12 hrs by Western blotting analysis; format: cell-based; settings: dose 0.1-1 µM
[12] = tested on: NCI-H1299; test: Inhibition of Wnt pathway in human NCI-H1299 cells assessed as downregulation of Axin2 expression at 0.1 to 1 uM incubated for 48 hrs by Western blotting analysis; format: cell-based; settings: dose 0.1-1 µM
[13] = tested on: NCI-H1299; test: Inhibition of Wnt pathway in human NCI-H1299 cells assessed as downregulation of c-Myc expression at 0.1 to 1 uM incubated for 48 hrs by Western blotting analysis; format: cell-based; settings: dose 0.1-1 µM
[14] = tested on: NCI-H1299; test: Induction of apoptosis in human NCI-H1299 cells assessed as downregulation of ERK expression incubated for 48 hrs by Western blotting analysis; format: functional, cell-based
[15] = tested on: NCI-H1299; test: Induction of autophagy in human NCI-H1299 cells assessed as downregulation of p62 expression at 0.1 to 1 uM incubated for 48 hrs by Western blotting analysis; format: functional, cell-based; settings: dose 0.1-1 µM
[16] = tested on: NCI-H1299; test: Induction of autophagy in human NCI-H1299 cells assessed as effect on LC3II protein expression at 0.1 to 1 uM incubated for 48 hrs by Western blotting analysis; format: functional, cell-based; settings: dose 0.1-1 µM
[17] = tested on: A549; test: cells; settings: Homo sapiens, A549, 48 h
Description: Antiproliferative activity against human A549 cells assessed as inhibition of cell growth incubated for 48 hrs by MTT assay

Sequence of Dual specificity protein kinase CLK4 (Q9HAZ1 whole entry, looked up): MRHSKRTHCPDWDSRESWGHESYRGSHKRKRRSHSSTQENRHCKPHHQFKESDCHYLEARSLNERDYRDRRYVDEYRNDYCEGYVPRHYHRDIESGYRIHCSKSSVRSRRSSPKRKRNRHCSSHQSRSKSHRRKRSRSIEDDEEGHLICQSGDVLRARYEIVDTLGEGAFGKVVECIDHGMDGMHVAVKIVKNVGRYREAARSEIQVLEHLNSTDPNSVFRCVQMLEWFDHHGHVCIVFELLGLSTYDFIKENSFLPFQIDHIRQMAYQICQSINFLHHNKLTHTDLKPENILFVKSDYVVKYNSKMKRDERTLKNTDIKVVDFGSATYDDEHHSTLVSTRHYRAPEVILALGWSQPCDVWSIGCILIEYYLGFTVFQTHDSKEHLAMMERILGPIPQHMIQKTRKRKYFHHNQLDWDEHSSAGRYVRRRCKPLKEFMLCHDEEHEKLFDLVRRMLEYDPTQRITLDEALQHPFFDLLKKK
Sequence of Dual specificity tyrosine-phosphorylation-regulated kinase 1B (Homo sapiens) (Q9Y463 whole entry, looked up): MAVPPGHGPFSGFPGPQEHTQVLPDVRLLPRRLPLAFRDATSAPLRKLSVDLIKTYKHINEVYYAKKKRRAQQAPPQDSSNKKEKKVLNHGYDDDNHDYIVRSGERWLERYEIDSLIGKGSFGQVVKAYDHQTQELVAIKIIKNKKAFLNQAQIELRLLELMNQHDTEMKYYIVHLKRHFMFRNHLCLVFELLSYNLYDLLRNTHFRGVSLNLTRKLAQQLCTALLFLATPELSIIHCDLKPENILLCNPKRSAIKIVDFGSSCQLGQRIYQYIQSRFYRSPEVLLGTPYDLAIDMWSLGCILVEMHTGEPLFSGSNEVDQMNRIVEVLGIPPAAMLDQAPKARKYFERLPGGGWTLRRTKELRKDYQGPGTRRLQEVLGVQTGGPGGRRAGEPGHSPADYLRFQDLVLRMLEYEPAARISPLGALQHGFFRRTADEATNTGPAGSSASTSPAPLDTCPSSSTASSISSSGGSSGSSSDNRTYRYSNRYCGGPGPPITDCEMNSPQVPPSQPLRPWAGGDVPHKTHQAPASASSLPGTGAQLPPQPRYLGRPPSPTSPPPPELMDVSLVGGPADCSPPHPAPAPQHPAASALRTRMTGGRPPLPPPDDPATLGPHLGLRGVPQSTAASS
Sequence of Dual specificity protein kinase CLK1 (P49759 whole entry, looked up): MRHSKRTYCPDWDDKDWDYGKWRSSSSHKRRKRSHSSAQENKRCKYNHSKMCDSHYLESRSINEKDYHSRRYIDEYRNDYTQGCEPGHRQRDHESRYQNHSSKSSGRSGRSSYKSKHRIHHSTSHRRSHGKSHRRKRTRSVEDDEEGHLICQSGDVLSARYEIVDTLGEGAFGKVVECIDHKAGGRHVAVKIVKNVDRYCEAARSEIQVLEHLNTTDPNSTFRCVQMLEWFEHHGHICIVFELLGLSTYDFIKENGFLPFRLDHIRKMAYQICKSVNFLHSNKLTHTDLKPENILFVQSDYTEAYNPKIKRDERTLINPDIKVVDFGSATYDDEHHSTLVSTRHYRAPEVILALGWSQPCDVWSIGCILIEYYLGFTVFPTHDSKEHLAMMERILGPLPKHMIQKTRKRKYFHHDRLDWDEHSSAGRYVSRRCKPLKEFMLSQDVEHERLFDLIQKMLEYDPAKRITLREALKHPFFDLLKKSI

## FC1(F)CCN(Cc2cncc(-c3ccc4[nH]nc(-c5nc(-c6ccco6)c(-c6ccco6)[nH]5)c4c3)c2)C1
[1]
  inhibition: Active; Showed Stronger Inhibition Compared To Indazole 1
[2]
  inhibition: 95%
[3]
  inhibition: 84.4%
[4]
  viability at 1 µM: 84.3%
[5]
  Activity: 1.45%
[6]
  Activity: 9.75%
[7]
  Activity: 1.78%
[8]
  Activity: 0.74%
[9]
  Activity: 1.6%
[10]
  Activity: Active
[11]
  inhibition: Active
[12]
  inhibition: Active
[13]
  inhibition: Active
[14]
  Activity: Dose-dependent-effect
[15]
  Activity: Active
[16]
  Activity: Active
[17]
  IC50: 170 nM
